Experimental data from patent US12419947B2, “Inorganic polyatomic oxyanions for protecting against antigenic damage during pathogen inactivation for vaccine production” (priority 2016, dated 2025).

Legend:
[1] = test system: dengue serotype 4 (DENV4); assay: DENV-specific sandwich ELISA (MAbs 15A5 and 6H6) on treated DENV4; type: binding, dengue virus; details: for antigenicity (ELISA at 20 hrs post-inactivation): H2O2=0.01%, compound 10 μM; for ELISA signal / antigenicity with added salt during H2O2/CuCl2 inactivation: 0.01% H2O2, 1 μM CuCl2, 20 hours, vs standard conditions; for ELISA signal with added oxyanion during formaldehyde inactivation: 0.01% formaldehyde, 20 days at 37° C.; for ELISA signal with added oxyanion during BPL inactivation: 0.1% BPL
dengue virus 3 (DENV3) = assay: DENV-specific sandwich ELISA on treated DENV3; type: binding; details: H2O2 0.01%
[2] = test system: chikungunya virus (CHIKV); assay: CHIKV-specific sandwich ELISA (retained antigenicity); type: binding
DENV2 = DENV2 inactivation kinetics (PFU assay); type: cell-based, dengue virus; details: 3% H2O2, or 0.01% H2O2 and 1 μM CuCl2, room temperature
[3] = test system: Campylobacter coli (C. coli); assay: Campylobacter morphology after inactivation (Gram safranin stain); details: 3% H2O2 5 hours, or 0.01% H2O2 and 2 uM CuCl2
[4] = test system: dengue serotype 4 (DENV4); assay: DENV4 live virus plaque assay on Vero cells; type: cell-based, dengue virus; details: for rate of inactivation (viable virus at 1 hr post-inactivation): H2O2=0.01%, compound 10 μM; for virus inactivation with added salt during H2O2/CuCl2 inactivation: 0.01% H2O2, 1 μM CuCl2, 20 hours
[5] = test system: chikungunya virus (CHIKV); type: cell-based
[6] = test system: Campylobacter coli (C. coli); assay: C. coli inactivation (viable bacteria over time); type: cell-based; details: H2O2=0.01%, MZ=20 μM, 150 mM NaPO4
vaccinia virus (VV) = type: cell-based; details: H2O2=0.002%, CuCl2=1 μM, MZ=10 μM, PBS pH=7.5
Listeria monocytogenes = Listeria monocytogenes inactivation (CFU/mL); type: cell-based; details: H2O2=0.10%, MZ=100 μM, 150 mM NaPO4
Shigella dysenteriae = Shigella dysenteriae inactivation (CFU/mL); type: cell-based; details: H2O2=0.10%, CuCl2=10 μM, MZ=100 μM, 150 mM NaPO4
smallpox = details: in vivo; cited from earlier work
vaccinia = details: cited from earlier work
[7] = BEI, Na2HPO4 150 mM, 20 hours at 37° C.
[8] = 0.01% formaldehyde with high oxyanion, 20 days at 37° C.
[9] = 0.1% BPL with high oxyanion, 20 hours
[10] = 20 hours, room temperature, 150 mM NaPO4

O=C1CCO1 [BPL, β-propiolactone, reference compound]
ELISA signal ([1]; standard BPL conditions: 0.1% BPL, 20 hours, room temperature): loss of ELISA signal

[Cl][Fe]([Cl])[Cl] [FeCl3]
antigenicity with increasing FeCl3 concentrations (dengue virus 3 (DENV3)): enhanced antigenicity

OO [H2O2, hydrogen peroxide]
antigenicity (in vitro potency testing using envelope-specific MAbs) ([2]; 3% H2O2 under standard conditions): nearly complete loss of antigenicity
kinetics of virus inactivation versus total viral protein concentration (DENV2): protein concentration-independent
bacterial morphology [3]: substantially damaged with clear changes in morphology
neutralizing epitopes (antigenicity) (yellow fever virus (YFV)): severe damage to neutralizing epitopes

CCCN1C(=O)C(=NNC(N)=S)c2ccccc21 [N-propylisatin β-thiosemicarbazone]
antigenicity (ELISA at 20 hrs post-inactivation) ([1]; CuCl2=1 μM, 150 mM NaPO4): superior antigenicity
rate of inactivation (viable virus at 1 hr post-inactivation) ([4]; CuCl2=1 μM, 150 mM NaPO4): enhanced rates of inactivation

O=P(O)(O)O [Na2HPO4, sodium phosphate]
ELISA signal with added oxyanion during H2O2/CuCl2 inactivation ([2]; 0.01% H2O2, 5 μM CuCl2, 20 hours, 150 mM Na2HPO4 with or without 3 mM Na3P3O9): increased ELISA signals
residual live virus (co-culture, estimated LOD of 100 PFU/mL) [5]: completely inactivated
ELISA signal / antigenicity with added salt during H2O2/CuCl2 inactivation ([1]; room temperature): increased ELISA signal
ELISA signal with added oxyanion during formaldehyde inactivation [1]: increased ELISA signals
ELISA signal with added oxyanion during BPL inactivation ([1]; 20 hours, room temperature): increased ELISA signals
ELISA signal with added oxyanion during BEI inactivation [1, 7]: increased ELISA signals
virus inactivation with added salt during H2O2/CuCl2 inactivation [4]: complete virus inactivation
virus inactivation [4, 8]: completely inactivated
virus inactivation [4, 9]: completely inactivated
kinetics of virus inactivation in presence vs absence of high Na2HPO4 ([4]; 150 mM vs 10 mM, 0.01% H2O2, 1 μM CuCl2): similar
virus inactivation [4, 7]: completely inactivated

NC(=S)NN=C1C(=O)Nc2ccccc21 [isatin β-thiosemicarbazone]
antigenicity (ELISA at 20 hrs post-inactivation) ([1]; CuCl2=1 μM, 150 mM NaPO4): superior antigenicity
rate of inactivation (viable virus at 1 hr post-inactivation) ([4]; CuCl2=1 μM, 150 mM NaPO4): enhanced rates of inactivation

O=C1Nc2ccccc2C1=O [isatin]
antigenicity (ELISA at 20 hrs post-inactivation) ([1]; CuCl2=1 μM, 150 mM NaPO4): protection of protein antigens from oxidative damage
rate of inactivation (viable virus at 1 hr post-inactivation) ([4]; CuCl2=1 μM, 150 mM NaPO4): do not appear to increase the rate of inactivation

[Cl-].[Cl-].[Mg+2] [magnesium chloride, reference compound]
ELISA signal / antigenicity with added salt during H2O2/CuCl2 inactivation ([1]; room temperature): no protective effect on antigenicity

O=S(=O)([O-])[O-].[Mg+2] [magnesium sulfate]
ELISA signal / antigenicity with added salt during H2O2/CuCl2 inactivation ([1]; room temperature): improved antigenicity
virus inactivation with added salt during H2O2/CuCl2 inactivation [4]: complete virus inactivation

CN1C(=O)/C(=N\NC(N)=S)c2ccccc21 [methisazone, N-methyl-isatin β-thiosemicarbazone]
antigenicity on addition of methisazone to dual oxidation [2, 10]: maintained or significantly improved antigenicity
retained antigenicity at 20 hrs with increasing methisazone relative to the transition metal ([2]; H2O2 0.02%, CuCl2 1 μM, 150 mM NaPO4): improvements in both retained antigenicity
increase of the rate of inactivation on addition of methisazone [5]: 10- to 20 fold
rate of dual-oxidation-based inactivation on addition of methisazone [5]: substantially increase the rate
virus inactivation (plaque assay at 1 hr) with increasing methisazone relative to the transition metal [5]: increased virus inactivation rates
virus inactivation by methisazone alone [5]: minimal impact
inactivation rate on addition of methisazone to H2O2/CuCl2 [6]: substantially enhanced inactivation rates
antigenicity on addition of methisazone to dual oxidation [1, 10]: maintained or significantly improved antigenicity
antigenicity, methisazone together with polyatomic oxyanions ([1]; H2O2=0.002%, CuCl2=1 μM, 150 mM Na2HPO4, methisazone 10 μM, 20 hours): higher antigenicity than could be achieved by either approach in isolation
rate of dual-oxidation-based inactivation on addition of methisazone ([4]; H2O2=0.002%, CuCl2=1 μM, MZ=10 μM, 150 mM NaPO4): substantially increase the rate
virus inactivation by methisazone alone ([4]; MZ=10 μM): minimal impact
increase of the rate of inactivation on addition of methisazone ([4]; dual oxidation, 150 mM NaPO4, stated for CHIKV and DENV4 together): 10- to 20 fold
rate of dual-oxidation-based inactivation on addition of methisazone (vaccinia virus (VV)): substantially increase the rate
inactivation rate on addition of methisazone to H2O2/CuCl2 (Listeria monocytogenes): substantially enhanced inactivation rates
inactivation rate on addition of methisazone to H2O2/CuCl2 (Shigella dysenteriae): substantially enhanced inactivation rates
deaths among close contacts receiving methisazone (smallpox): no deaths
serious adverse events (vaccinia; mean initial dose 152 mg/kg, total average 809 mg/kg over 3.75 days): lack of serious adverse events
complications of vaccinia vaccination (vaccinia; used prophylactically prior to vaccinia vaccination): reduce complications

NNC(N)=O [semicarbazide]
antigenicity (ELISA at 20 hrs post-inactivation) ([1]; CuCl2=1 μM, 150 mM NaPO4): protection of protein antigens from oxidative damage
rate of inactivation (viable virus at 1 hr post-inactivation) ([4]; CuCl2=1 μM, 150 mM NaPO4): do not appear to increase the rate of inactivation

[Cl-].[Na+] [sodium chloride, reference compound]
ELISA signal / antigenicity with added salt during H2O2/CuCl2 inactivation ([1]; room temperature): no protective effect on antigenicity

O=S(=O)([O-])[O-].[Na+].[Na+] [sodium sulfate]
ELISA signal / antigenicity with added salt during H2O2/CuCl2 inactivation ([1]; room temperature): improved antigenicity
ELISA signal with added oxyanion during formaldehyde inactivation [1]: increased ELISA signals
ELISA signal with added oxyanion during BPL inactivation ([1]; 20 hours, room temperature): increased ELISA signals
virus inactivation with added salt during H2O2/CuCl2 inactivation [4]: complete virus inactivation
virus inactivation [4, 8]: completely inactivated
virus inactivation [4, 9]: completely inactivated

O=P1([O-])OP(=O)([O-])OP(=O)([O-])O1.[Na+].[Na+].[Na+] [sodium trimetaphosphate]
ELISA signal / antigenicity with added salt during H2O2/CuCl2 inactivation ([1]; room temperature): increased ELISA signals
virus inactivation with added salt during H2O2/CuCl2 inactivation [4]: completely inactivated

O=P([O-])([O-])OP(=O)([O-])OP(=O)([O-])[O-].[Na+].[Na+].[Na+].[Na+].[Na+] [sodium triphosphate]
ELISA signal / antigenicity with added salt during H2O2/CuCl2 inactivation ([1]; room temperature): increased ELISA signals
virus inactivation with added salt during H2O2/CuCl2 inactivation [4]: completely inactivated

NNC(N)=S [thiosemicarbazide]
antigenicity (ELISA at 20 hrs post-inactivation) ([1]; CuCl2=1 μM, 150 mM NaPO4): superior antigenicity
rate of inactivation (viable virus at 1 hr post-inactivation) ([4]; CuCl2=1 μM, 150 mM NaPO4): enhancement of inactivation
